In patent US20240091138A1, “TOPICAL C[…]” (EGIS GYÓGYSZERGYÁR ZRT., priority 2021, published 2024):

Columns and labels:
Wistar rats = assay: Chronic constriction injury (CCI) rat model of neuropathy, paw withdrawal threshold with electronic von Frey; format: in vivo; settings: 16.66 mg/kg
Excerpt: Furthermore, based on the article Bennett G J, at al (Pain, A peripheral mononeuropathy in rat that produces disorders of pain sensation like those seen in man. 1988 April; 33(1):87-107) we have developed a method for the examination of the compositions of the present invention. Thus, we have examined the compositions according to the present invention also with a different model for measuring the alleviation of the peripheral neuropathic pain also. Namely, we have carried out examinations on rats using Chronic constriction injury (CCI) model. Three weeks following nerve injury rats were assessed for hind paw mechanical withdrawal thresholds. The paw withdrawal threshold (PWT) was determined with an Electronic von Frey device according to the modified up-down method of Dixon (Efficient analysis of experimental observations, Annu Rev Pharmacol Toxicol. 1980; 20:441-62). […] The method and results are shown in example 3 and on FIG. 9.
Thus, the compositions of the present invention are effective in the treatment of neuropathic pain. […]
Briefly, under isoflurane anesthesia small blunt dissection was made into the skin of rat right thigh then three loosely constrictive ligatures were placed around common sciatic nerve (chronic constriction injury CCI). Three weeks following nerve injury rats were assessed for hind paw mechanical withdrawal thresholds. […]

Solubility of pregabalin = settings: in any solvents
[1] = Pharmacokinetic studies (blood levels of pregabalin); settings: during topical treatment

CC(C)C[C@H](CN)CC(=O)O [pregabalin]
reduction of hypersensitivity after oral administration (Wistar rats): not able to reduce hypersensitivity
Solubility (Solubility of pregabalin): poor
amount of pregabalin entering the bloodstream [1]: very small amounts
